Reference: PMC8695447, “Novel Small Molecules Capable of Blocking mtRAS-Signaling Pathway” (Frontiers in Oncology, 2021)

How the values were obtained:
Format in all cases: cell-based
AsPC-1 (KRAS-G12D) = assay: Anti-proliferation assay on AsPC-1; conditions: Homo sapiens, ASPC1; 72 h treatment; average with SD (n = 3, duplicate)
Method: (§1) Ba/F3-parental, OCI-AML3, U397 cells were purchased from DSMZ. MDA-MB-231, HCT-116, AsPC-1, H358, HT-29, SW480, and DU-145 cells were obtained from KCLB. MDA-MB-468 cells were obtained from ATCC. All cells were maintained in RPMI with 10% FBS and antibiotics. Cells were grown in a humidified 5% CO2 incubator at 37°C. Ba/F3-parental cells were grown in the presence of 10 ng/ml IL-3. NRAS-G12D or NRAS-G12V transformed Ba/F3 cell lines (Ba/F3-NRAS-G12D, and Ba/F3-NRAS-G12V, respectively) were cultured without IL-3, which were established by the procedure described as previously ([30]).
(§2) Approximately 3.0 × 10^3 cells/well were seeded in a 96-well cell culture plate. After stabilization, 1/3 serially diluted compound in DMSO was treated to the cell. […] All GI50 values were obtained in duplicate with three independent assays and averages with standard deviation are presented.

[1] = test system: cancer cells with mtRAS including H358, AsPC-1, DU-145, SW480, and MDA-MB-231; assay: Invasion assay (Boyden chamber assay); conditions: 0.01 µM, 48 h
Method: For invasion assay, Boyden chamber assay carried out. Transwell insert was precoated with matrigel (Corning, #354248). Cells were seeded in the transwell chamber insert (8 μm pore size) at a density of 5.0 × 10^5 cells/well after serum starvation for overnight. The cells were incubated with 0.01 μM concentration of each compounds of for 48 h at 37°C. The non-invaded cells were eliminated. Crystal violet solution was used to staining the invaded cells. Cells were observed and photographed with 100× magnification. Stained cells were automatically counted and quantified (n = 3).
Figure 6 The effects of SIJ1795 and SIJ1772 on migration and invasion activities of cancer cells harboring mtRAS. (A) Scratch assay result for cell migration ability determination. Each cell monolayers were scratched and incubated with test compounds at 0.01 μM. After 8 h (MDA-MB-231) or 24 h (DU-145, SW480, HCT-116) or 48 h (AsPC-1) or 72 h (HT-29), cells were stained with crystal violet. Migrated areas were photographed with 40× magnification. Migrated area was determined by ImageJ (n = 3). (B) Boyden chamber assay result for cell invasion ability determination. […] Stained cells were counted by ImageJ (n = 3). Statistical significance was determined using a one-way ANOVA analysis (*p < 0.05, **p < 0.01, ***p < 0.001, ****p < 0.0001).

[2] = test system: cancer cells harboring mtRAS; assay: Flow cytometry apoptosis analysis (annexin V/PI), cancer cells harboring mtRAS; conditions: 1 μM, 24 h
Method: For apoptosis analysis, cells (1 × 10^6 cells per sample) were incubated with each compounds for 24 h. Cells were subjected to brief ice-cold PBS washing and subjected to staining with Alexafluor488-conjugated annexin V (Thermo Fisher, A13201), and propidium iodide (PI, Thermo Fisher, P3560). Thereafter, apoptotic cells were classified by FACS Accuri™ C6 Plus (BD Biosciences). Debris and unstained cells and were excluded by gating.
Figure 4 The effects of (A) SIJ1795 and (B) SIJ1772 on apoptosis induction in cancer cells harboring mtRAS. Cells were treated with 0.1 and 1 μM of SIJ1795 SIJ1772, and GNF-7 for 24 h. Western blot analysis was conducted to evaluate the cleaved PARP and level. GAPDH was used as a loading control. (C) Apoptotic cell population (annexin V-positive) was determined by flow cytometry analysis (n = 3). Cells were treated with 1 μM of indicated compounds for 24 h. Statistical significance was determined using a one-way ANOVA analysis (*p < 0.05, **p < 0.01, ***p < 0.001).

Ba/F3-NRAS-G12D cells = assay: Anti-proliferation assay (CellTiter Glo) on Ba/F3-NRAS-G12D; conditions: Mus musculus, BaF3; 72 h treatment; average with SD (n = 3, duplicate)
Method: as §1, §2

[3] = test system: phospho-70S6K1, -JNK, -p38 in Ba/F3-NRAS-G12D and OCI-AML cells; assay: Western blot, ACK1 and GCK downstream signaling (phospho-70S6K1, -JNK, -p38); conditions: 0.1, 1, 10 μM for 2 h
Method: Approximately 1 × 10^6 cells per well were seeded in a 6-well cell culture plate. After cell adhesion, each compounds were treated for 2 h with indicated concentration and conducted brief washing twice by ice-cold PBS. Cells were lysed by NP40 buffer (50 mM Tris–HCl pH 7.4, 1% NP40, 2 mM EDTA, 150 mM NaCl) in the presence of protease inhibitor cocktail (Roche, #11873580001) and phosphatase inhibitor cocktail (Roche, #04906837001). Each sample was loaded with same amount of total protein and separated by SDS-PAGE gel. After transferred to nitrocellulose membrane, blocking with 5% skim milk (in TBS/T) was followed. The membrane was incubated 4°C for overnight with uniformly diluted primary antibodies at 1:1,000 (v/v) in TBS/T. The following primary antibodies were used: anti-p-AKT (Cell Signaling, #9271), anti-p-ERK1/2 (Cell Signaling, #4370), anti-PARP (Cell Signaling, #9542), anti-GAPDH (Cell Signaling, #5174), anti-p-70S6K1 (Cell Signaling, #9204), anti-p-JNK(Cell Signaling, #9251), anti-p-p38 (Cell Signaling, #9216), and anti-p-MEK1/2 (Santa Cruz, sc-81503). […] Chemiluminescence signals were detected by ImageQuant™ LAS 4000 (GE Healthcare). […]

Ba/F3-parental cells = assay: Anti-proliferation assay (CellTiter Glo) on Ba/F3-parental; conditions: Mus musculus, BaF3; 72 h treatment; with 10 ng/ml IL-3; average with SD (n = 3, duplicate)
Method: as §1, §2

Ba/F3-NRAS-G12V cells = assay: Anti-proliferation assay (CellTiter Glo) on Ba/F3-NRAS-G12V; conditions: Mus musculus, BaF3; 72 h treatment; average with SD (n = 3, duplicate)
Method: as §1, §2

GI50 (AsPC-1 (KRAS-G12D)) [nM]	GI50 (Ba/F3-NRAS-G12D cells) [nM]	GI50 (Ba/F3-NRAS-G12V cells) [nM]	Compound	reduction in invasion capabilities [1]	apoptosis against cancer cells harboring mtRAS (annexin V/PI) [2]	phosphorylation of 70S6K1 (downstream molecule of ACK), JNK, p38 (downstream molecule of GCK) [3]	GI50 (Ba/F3-parental cells) [nM]
170 ± 32	77 ± 16	96 ± 9	Cc1ccc(NC(=O)c2cccc(C(F)(F)F)c2)cc1N1Cc2cnc(Nc3cnn(C4CCN(S(C)(=O)=O)CC4)c3)nc2N(C)C1=O [SIJ1772, N-(4-Methyl-3-(1-methyl-7-((1-(1-(methylsulfonyl)piperidin-4-yl)-1H-pyrazol-4-yl)amino)-2-oxo-1,4-dihydropyrimido[4,5-d]pyrimidin-3(2H)-yl)phenyl)-3-(trifluoromethyl)benzamide]	over 50%	induced apoptosis	effectively inhibited	1920 ± 86
144 ± 23	82 ± 31	75 ± 45	CCN1CCN(c2cccc(Nc3ncc4c(n3)N(C)C(=O)N(c3cc(NC(=O)c5cccc(C(F)(F)F)c5)ccc3C)C4)c2)CC1 [SIJ1795, N-(3-(7-((3-(4-Ethylpiperazin-1-yl)phenyl)amino)-1-methyl-2-oxo-1,4-dihydropyrimido[4,5-d]pyrimidin-3(2H)-yl)-4-methylphenyl)-3-(trifluoromethyl)benzamide]	over 50%	induced apoptosis	effectively inhibited	2020 ± 419
